From a melting point compilation (Tetko et al.; mined from patent text by program, amines drawn as free bases though some values may be those of a salt)

SMILES | melting point [°C]
CCCCC[C@H]1CC[C@H](c2ccc(CC#N)cc2)CC1 | 53
CCCC(=O)c1c[nH]c2c(N3C(=O)c4ccccc4C3=O)cccc2c1=O | 318 to 320
O=S1(=O)c2ccccc2C=Cc2ccc(C=Nc3ccccc3)cc21 | 184 to 185
NC(=O)c1ccc(N2CCN(CCC3C=Cc4ccccc43)CC2)cc1 (centres undefined) | 207
CCCCCCCCCC(O)CNCCNCC(O)CCCCCCCCC (centres undefined) | 130 to 138
CCOC(=O)c1cnn(-c2ccccn2)c1S(=O)(=O)NC(=O)Nc1nc(OC)cc(OC)n1 | 140 to 142
COC(=O)c1ccc(Cl)cc1OS(C)(=O)=O | 82.5 to 84.5
O=C(N(Cc1cccs1)CC1CCCCC1)C12CC3CC(CC(C3)C1)C2 | 112 to 116
CCOC(=O)c1cc(SCc2ccccc2)c(Cc2ccccc2)c(S(N)(=O)=O)c1 | 108 to 110
CCn1ncnc1COc1nc2c(cc1C(C)(C)C)nnn2-c1cc(F)ccc1F | 148 to 150
C[C@@H]1CN(c2c(F)c(N)c3c(=O)c(C(=O)O)cn(C4CC4)c3c2F)C[C@H]1N (relative stereo) | 234 to 236
CCCCCCCCCCCCOC(=O)CS(=O)(=O)Nc1c(C(C)C)cccc1C(C)C | 58 to 59
COC(=O)C(C)(C)CCCN1CCN(C(=O)C=Cc2ccccc2)CC1 | 76
CCOCc1nc2c(N)nc3cc(OCc4cscn4)ccc3c2n1CC(C)(C)O | 190 to 191
CC(=O)NC(=CC(C)C)c1ccccc1N1CCCCC1 | 140 to 143
CC(C)(CF)C(O)(COc1ccc(F)cc1)Cn1cncn1 (centres undefined) | 97 to 99
COc1ccc(C(F)(F)F)cc1Nc1ccc(C(F)(F)F)cc1[N+](=O)[O-] | 86 to 88
OC(CCN1CCN(c2cccc(C(F)(F)F)c2)CC1)COc1ccccc1 (centres undefined) | 83 to 84
Cc1[nH]c2ccccc2c1Cc1ccncc1 | 126 to 127
CNC(=S)N1CCc2ncn(C)c2C1 | 235
Cc1nc2cccc3n(CCCCCNS(=O)(=O)CC(F)(F)F)c(=O)c1n23 | 143 to 145
CC(C)(C)OC(=O)N1CCn2c(c(C(N)=O)c(Cl)c2C2CC2)C1 | 102 to 104
CCCNC(=S)c1ccc2c(c1)N([C@H](C)CN1CCC[C@@H](C)C1)c1ccccc1S2 (racemic) | 126
Cc1ncc(O)c(=O)[nH]1 | > 300
O=[N+]([O-])c1ccc(C(O)C(COc2ccccc2)N2CCC(Cc3ccccc3)CC2)cc1 (centres undefined) | 159 to 162

SMILES | melting point [°C]
N#CCCN1CCC(c2ccccc2)(c2ccccc2)CC1 | 95 to 96
CCCCc1nc(S(=O)c2ccccc2)c(C(=O)O)n1Cc1ccc(-c2ccccc2C(=O)O)cc1 (centres undefined) | 195
CN(C)CCNc1ccc(O)c2c1C(=O)c1c(Cl)ccc(Cl)c1C2=O | 125 to 130
CCC(=O)CC(=O)c1ccc(C2CCC(CC)CC2)cc1 (centres undefined) | 78
Cc1cc(C)c(O)c(Cc2cc(C)cc(C)c2O)c1 | 125 to 126
O=S1(=O)c2cccc3cccc(c23)N1CCN1CC=C(Cc2c[nH]c3ccc(F)cc23)CC1 | 128
CC(C)(C)OC(=O)NCCn1cc(COc2ccc(C3=NC(=Nc4[nH]c(-c5ccc(O)cc5)cc4-c4ccccc4)C(c4ccccc4)=C3)cc2)nn1 | 128 to 130
C#Cc1ccc(-c2nc(-c3ccccc3)nc(-c3ccc(C#C)cc3)n2)cc1 | 215
CCC(CC)NC(=O)C[C@@H](C(=O)NC[C@@H](O)[C@H](Cc1ccccc1)NC(=O)[C@@H](NC(=O)c1ccc2ccccc2n1)[C@@H](C)O)C(C)(C)C | 110 to 125
Cc1ncnn1-c1cc(F)ccc1CNC(=O)c1nc2n(c(=O)c1OCc1ccccc1)CCN2C(C)C | 158 to 159
CCn1ncc2c(NCCc3ccccc3)c3ccc(OC)cc3nc21 | 163 to 164
CN(C)CCC(O)c1ccccc1 (centres undefined) | 45 to 46
CNC(=O)c1ccc(-c2ccc3cnc(Nc4ccc(N5CCC(N6CCN(C)CC6)CC5)cc4OC)nn23)cc1 | 112 to 114
O=C(CCCCl)Nc1ccccc1 | 64 to 66
O=C1NCCN1CC#CCn1ccnc1 | 97 to 101
COc1cc(C(CCl)(OC)OC)ccc1OS(=O)(=O)c1ccccc1 | 130
Cc1nc2ccc(OC(F)(F)F)cc2[nH]1 | 135 to 137
CNc1ccc(CO)cc1[N+](=O)[O-] | 126 to 127
O=C(CSc1nc2ccccc2[nH]1)c1ccc(Br)cc1 | 241 to 245
CC(C)C(=O)O[C@@H](OC(=O)ON1C(=O)[C@H](OC(=O)c2ccccc2)[C@@H](OC(=O)c2ccccc2)C1=O)C(C)C | 138 to 140
CCn1cc(C(=O)O)c(=O)c2cc(F)c(C)c(F)c21 | 245 to 248
COc1cc(Nc2c(C#N)cnc3cc(OCc4ccccc4)c(OC)cc23)c(Cl)cc1Cl | 198 to 200
O=C(Nc1sc2c(c1S(=O)(=O)O)CCCC2)C1CC1 | 225 to 230
CCCc1c(OCCCOc2ccc(C(=O)OCC)cc2Cl)ccc(C(C)=O)c1O | 101 to 102
c1cncc(Nc2ncc(-c3ccncn3)c(-c3ccco3)n2)c1 | 174

SMILES | melting point [°C]
CCc1coc(Cc2ccc(NC(=O)/C=C/c3cnn(C)c3-c3ccc(F)cc3)cc2)n1 | 174 to 175
COc1cccc(OC)c1C=CC(=O)c1ccccc1 | 54.9 to 55.8
COc1cccc(CC(=O)O)c1OCCCc1cn(-c2ncc(Cl)cc2Cl)nc1C(C)C | 105 to 106
COCC1CN(c2ccc(C3CCC(OC(c4ccccc4)c4ccccc4)CC3)cc2)C(=O)O1 (racemic) | 146 to 148
CC(SC1COC(c2ccc(C(=O)Nc3ccc(C#N)cc3)cc2)OC1)C(O)(Cn1cncn1)c1ccc(F)cc1F (centres undefined) | 176
COc1ccc(CN(C)CC=CCc2ccc(NC(=O)c3cccc4c(=O)c5ccccc5[nH]c34)cc2)cc1OC | 140
O=C(CCCO)Nc1cccc(-c2cccc3cc(Cc4cccc(C(F)(F)F)c4)oc23)c1 | 134 to 135
CC(=O)N[C@@H](C)COC1CCN(c2nc3cc(OCC4CC4)ccc3s2)CC1 | 115 to 116
Cc1c(Br)csc1C#N | 54 to 58
N#Cc1c(N2CCCN(c3ccccn3)CC2)cc[nH]c1=S | 220 to 224
CCOc1nn(Cc2ccnc(OCc3nc(-c4ccccc4)oc3C)c2)cc1CCC(=O)O | 114 to 115
COc1cc(C)nc(NC(=O)NS(=O)(=O)c2ccccc2C2CC2(Cl)Cl)n1 (centres undefined) | 187 to 191
CCCCCCCCOC(=O)Oc1ccc(C(=O)O)cc1 | 126
O=C(O)CCc1oc(Sc2ccccc2)nc1-c1ccc(Cl)cc1 | 156 to 157
CCOC(=O)c1oc2ccc(Cl)cc2c1CBr | 112 to 114
O=C1NC(=O)C(Cc2ccc(OCCON=Cc3ccc4ccccc4n3)cc2)S1 (centres undefined) | 164 to 166
Cc1ccc(-c2nc(Cl)cc(N3CCN(C)CC3)n2)cc1 | 93 to 95
C=CCc1ccc2oc(C(=O)OCC)c(C)c2c1O | 123
Cc1cc(Cl)ccc1NC(=O)NCCCl | 190
NS(=O)(=O)c1cc2[nH]c(CCl)nc2cc1Cl | 296 to 301
CCc1ccc(C(=O)Oc2ccc(C(=O)O)cc2)cc1C12CC3CC(CC(C3)C1)C2 | 239 to 241
CC1(C)CNC(=O)c2cc3nc(-c4ccncc4)[nH]c3cc21 | 231 to 234
O=C(O)C1(NS(=O)(=O)c2ccc3oc4cc(Br)ccc4c3c2)CCCC1 | 177 to 178
N#CCCNC1(CC2CCCCC2)C(=O)Nc2ccc(Cl)cc21 (centres undefined) | 208
CCOC(=O)c1c(CCl)nc2sc3c(c2c1-c1ccc(OC)c(OC)c1)CCN(C(=O)c1ccc(Cl)cc1)C3 | 132 to 133

SMILES | melting point [°C]
Cc1cccc(N2Cc3ccccc3P2(=O)c2ccccc2)c1 (centres undefined) | 190 to 192
Cc1cccc2ncc(-c3nnnn3C)c(=O)n12 | 232 to 234
COC(=O)C1CN(C(=O)C2=Cc3cc(OC)c(OC)cc3CCC2)CCN1 (centres undefined) | 103 to 104
CCCCCN1C(=O)C2(COc3cc(-c4ccncc4)ccc32)c2ccccc21 (centres undefined) | 107 to 110
NCCSc1ncccc1C(O)c1ccccc1 (centres undefined) | 118 to 120
O=C1CCC(N2Cc3c(OCc4ccc(CN5CCCC5C(F)(F)F)cc4)cccc3C2=O)C(=O)N1 (centres undefined) | 178 to 180
CN(C)C=CC(=O)c1cccc(N(C)C(=O)C2CCC2)c1 | 117 to 119
OCCc1c(-c2ccccc2)n2nnnc2n2ncnc12 | 110
CC(C)n1nc(-c2c(-c3ccccc3)nn3ccc(OCCN4CCCCC4)cc23)ccc1=O | 144
CCC(NC(=O)NS(=O)(=O)C=Cc1ccccc1)C(=O)O (centres undefined) | 150 to 152
CC(C)NC(=O)C(C)(F)c1ccc(OS(=O)(=O)C(F)(F)F)cc1 (centres undefined) | 90 to 92
Cn1cc(-c2cccc(I)c2)c(=O)c(-c2cccc(C(F)(F)F)c2)c1 | 178 to 181
CCCCC(=N)NC(=O)Nc1ccc(Cl)c(Cl)c1 | 177 to 179
COc1ccccc1Oc1c(N)nc(-c2ncccn2)nc1OCCOc1ncc(Br)cn1 | 124 to 128
COC(=O)CCCc1cc2nc(Cl)ccc2n1S(=O)(=O)c1ccc2c(c1)CCN2C(C)=O | 123
O=C(Nn1cnnc1)C1=NN(c2ccc(Cl)cc2Cl)C(c2ccc(Cl)cc2)C1 (centres undefined) | 134 to 138
CC(=O)NC1Cc2cccc3cccc(c23)C1O (centres undefined) | 205 to 206
CC(O)CCNC(=O)C1CCC(Nc2nccc(-n3ncc4ccccc43)n2)CC1 (centres undefined) | 203 to 204
CCCc1ccc2nc(N)sc2c1 | 120 to 122
Clc1ccc(CN2CCC(c3cc(-c4cccc(Cl)c4)[nH]n3)CC2)cc1 | 156 to 157
COC(=O)C(Cc1cc(OC)cc(OC)c1)c1ccc(O)cc1 (centres undefined) | 63 to 65
COc1c(CBr)cccc1CBr | 83.5 to 85.5
CN(C)C(=O)N1CCc2ccc(S(=O)(=O)NC(=O)NCC3CCCC3)cc2CC1 | 165 to 166
CC(C)(C)OC(=O)N1CCCC1C(=O)NCCC(N)=O (centres undefined) | 175
